According to the Kinase Knowledgebase extract (Sharma et al. 2016):

The compounds below were run against MAPK14 (human) (UniProt Q16539) (assay: Inhibition of MAPK14 Kinase Activity).
Chain of MAPK14 (human) (Q16539 whole entry, looked up): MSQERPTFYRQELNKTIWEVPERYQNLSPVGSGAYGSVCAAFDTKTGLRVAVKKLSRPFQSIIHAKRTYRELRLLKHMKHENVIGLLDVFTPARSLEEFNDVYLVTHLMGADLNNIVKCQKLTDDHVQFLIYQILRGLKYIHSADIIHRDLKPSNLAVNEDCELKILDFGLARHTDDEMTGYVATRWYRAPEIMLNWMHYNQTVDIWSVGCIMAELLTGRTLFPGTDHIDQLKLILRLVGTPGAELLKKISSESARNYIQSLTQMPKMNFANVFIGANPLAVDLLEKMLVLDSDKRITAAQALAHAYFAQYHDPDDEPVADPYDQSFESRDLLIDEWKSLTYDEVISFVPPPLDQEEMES

Going from `Cc1ccc(C(=O)Nc2ccon2)cc1Nc1nc(N)nc(NC(C)C)c1C#N` to `Cc1ccc(C(=O)Nc2ccon2)cc1Nc1ncnc(NC(C)C)c1C#N`, the Ki rises from 0.057 nM to 0.41 nM (7.2-fold). The first binds more tightly here.

First: CONC(=O)c1ccc(C)c(Nc2ncnc(NC(C)C)c2C#N)c1
Second: CNc1ncnc(Nc2cc(C(=O)NOC)ccc2C)c1C#N
The Ki of the first is 26-fold lower: 0.61 nM for the first, 16 nM for the second.

Going from `Cc1ccc(C(=O)Nc2ccon2)cc1Nc1nc(N)nc(NC2CCCC2)c1C#N` to `Cc1ccc(C(=O)Nc2ccon2)cc1Nc1ncnc(NC2CCCC2)c1C#N`, the Ki rises from 0.16 nM to 1.6 nM (10-fold). The first binds more tightly here.

Going from `CCn1nccc1NC(=O)c1ccc(C)c(Nc2nc(N)nc(NC3CCCC3)c2C#N)c1` to `CCn1nccc1NC(=O)c1ccc(C)c(Nc2ncnc(NC3CCCC3)c2C#N)c1`, the Ki rises from 1.9 nM to 14 nM (7.4-fold). The first binds more tightly here.

Compared with `CCn1nccc1NC(=O)c1ccc(C)c(Nc2ncnc(NC(C)C)c2C#N)c1`, `CCn1nccc1NC(=O)c1ccc(C)c(Nc2nc(N)nc(NC(C)C)c2C#N)c1` is 10-fold lower in Ki: 15 nM for the first, 1.5 nM for the second. The second binds more tightly here.

`CONC(=O)c1ccc(C)c(Nc2nc(N3CCCN(C)CC3)nc(N(C)CC(C)(C)C)c2C#N)c1` and `CONC(=O)c1ccc(C)c(Nc2nc(N)nc(N(C)CC(C)(C)C)c2C#N)c1` are within 1.5-fold of each other in Ki: 0.057 nM for the first, 0.05 nM for the second.

First: CONC(=O)c1ccc(C)c(Nc2ncnc(N(C)CC(C)(C)C)c2C#N)c1
Second: CNc1nc(Nc2cc(C(=O)NOC)ccc2C)c(C#N)c(N(C)CC(C)(C)C)n1
The Ki of the first is 3.2-fold higher: 0.15 nM for the first, 0.047 nM for the second. The second binds more tightly here.

Work on `CCCNc1ncnc(Nc2cc(C(=O)NOC)ccc2C)c1C#N` yielded a Ki of 0.97 nM.

`CCn1nccc1NC(=O)c1ccc(C)c(Nc2nc(N)nc(NC3CCCC3)c2C#N)c1` and `CCn1nccc1NC(=O)c1ccc(C)c(Nc2nc(N)nc(NC(C)C)c2C#N)c1` are within 1.5-fold of each other in IC50: 1.9 nM for the first, 1.5 nM for the second.
